System: hypoxia-inducible endogenous VEGF expression in HeLa cells
Experiment: Hypoxia-inducible endogenous VEGF expression, VEGF ELISA of conditioned media (dose-response EC50)
Type: cell-based
Settings: HeLa cells, hypoxic conditions (1% O2)
Method in brief: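 Secreted VEGF was quantified by ELISA against a per-assay standard curve after HeLa cells spent 24-48 h in 1% O2, 5% CO2, N2 balance with or without compound. Across a series of, e.g., seven concentrations, percentage inhibition (max 100%, min 0%) gave EC50 and CC50 values.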

Row | SMILES | EC50
1 | O=C(Oc1ccc(Cl)cc1)N1CCc2c([nH]c3ccc(Cl)cc23)C1c1ccc(S(=O)(=O)N2CCOCC2)cc1 (stereo not drawn) [Compound 450] | 0.008 to 0.04 µM

Same assay, conditions: Homo sapiens, HeLa cells under hypoxic conditions

Row | SMILES | EC50
2 | Clc1ccc2[nH]c3c(c2c1)CCNC3c1ccc(OCc2ccccc2)cc1 (stereo not drawn) [Compound 212] | 0.2 to 1 µM
3 | Cc1cccc2c3c([nH]c12)C(c1ccccc1)NCC3 (stereo not drawn) [Compound 326] | > 1 µM
4 | CC(=O)N1CCc2c([nH]c3ccc(Cl)cc23)C1c1ccc(OCc2ccccc2)cc1 (stereo not drawn) [Compound 184] | 0.2 to 1 µM
5 | Clc1ccc(C2NCCc3c2[nH]c2ccc(Cl)cc32)c(Cl)c1 (stereo not drawn) [Compound 124] | 0.04 to 0.2 µM
6 | Cc1ccc(C2c3[nH]c4ccc(Cl)cc4c3CCN2C(=O)OCCCl)cc1 (stereo not drawn) [Compound 48] | 0.008 to 0.04 µM
7 | CC(C)OC(=O)N1CCc2c([nH]c3ccc(Cl)cc23)C1c1cccc(Br)c1 (stereo not drawn) [Compound 95] | 0.008 to 0.04 µM
8 | Clc1ccc2[nH]c3c(c2c1)CCN(Cc1ccccc1)C3c1ccccn1 (stereo not drawn) [Compound 275] | > 1 µM
9 | CC(=O)N1CCc2c([nH]c3ccc(Br)cc23)C1c1ccc(Br)cc1 (stereo not drawn) [Compound 129] | 0.04 to 0.2 µM
10 | CCOC(=O)N1CCc2c([nH]c3ccc(Cl)cc23)C1c1ccc(F)c(F)c1 (stereo not drawn) [Compound 39] | < 0.008 µM
11 | c1ccc(COc2ccc3[nH]c4c(c3c2)CCNC4c2cccnc2)cc1 (stereo not drawn) [Compound 320] | > 1 µM
12 | S=C(NC1CCCCC1)N1CCc2c([nH]c3ccc(Br)cc23)C1c1cccc(Cl)c1 (stereo not drawn) [Compound 150] | 0.04 to 0.2 µM
13 | Oc1cccc(C2NCCc3c2[nH]c2ccc(Cl)cc32)c1 (stereo not drawn) [Compound 291] | > 1 µM
14 | O=C(OCCCl)N1CCc2c([nH]c3ccc(Cl)cc23)C1c1cc(F)ccc1F (stereo not drawn) [Compound 22] | < 0.008 µM
15 | CCOC(=O)N1CCc2c([nH]c3ccc(Br)cc23)C1c1cccc(C(F)(F)F)c1 (stereo not drawn) [Compound 32] | < 0.008 µM
16 | COc1ccc(C2c3[nH]c4ccc(Cl)cc4c3CCN2C(=O)N(C)c2ccccc2)cc1 (stereo not drawn) [Compound 340] | > 1 µM
17 | O=C(OCCCl)N1CCc2c([nH]c3ccc(Cl)cc23)C1c1ccc([N+](=O)[O-])cc1 (stereo not drawn) [Compound 89] | 0.008 to 0.04 µM
18 | CS(=O)(=O)N1CCc2c([nH]c3ccc(Cl)cc23)C1c1ccc(OCc2ccccc2)cc1 (stereo not drawn) [Compound 225] | 0.2 to 1 µM
19 | CCCOC(=O)N1CCc2c([nH]c3ccc(Cl)cc23)C1c1cccc(Br)c1 (stereo not drawn) [Compound 69] | 0.008 to 0.04 µM
20 | COCCOCC(=O)N1CCc2c([nH]c3ccc(Br)cc23)C1c1ccc(Cl)cc1 (stereo not drawn) [Compound 238] | > 1 µM
21 | Clc1ccc2[nH]c3c(c2c1)CCN(Cc1ccccc1)C3c1cccnc1 (stereo not drawn) [Compound 276] | > 1 µM
22 | CCOC(=O)N1CCc2c([nH]c3ccc(Cl)cc23)C1c1ccc(-n2ccnc2)cc1 (stereo not drawn) [Compound 180] | 0.2 to 1 µM
23 | CCOC(=O)N1CCc2c([nH]c3ccc(Br)cc23)C1c1cccc(Cl)c1Cl (stereo not drawn) [Compound 148] | 0.04 to 0.2 µM
24 | CCNC(=S)N1CCc2c([nH]c3ccc(Cl)cc23)C1c1ccc(OCc2ccccc2)cc1 (stereo not drawn) [Compound 206] | 0.2 to 1 µM

Row | SMILES | EC50
25 | Clc1ccc2[nH]c3c(c2c1)CCNC3c1cccs1 (stereo not drawn) [Compound 310] | > 1 µM
26 | CCOC(=O)N1CCc2c([nH]c3ccc(Br)cc23)C1c1ccc(Br)cc1 (stereo not drawn) [Compound 3] | < 0.008 µM
27 | Clc1ccc2[nH]c3c(c2c1)CCNC3c1cccc(Cl)c1Cl (stereo not drawn) [Compound 168] | 0.04 to 0.2 µM
28 | CCOC(=O)N1CCc2c([nH]c3ccc(Cl)cc23)C1c1ccccc1Cl (stereo not drawn) [Compound 183] | 0.2 to 1 µM
29 | Clc1ccc2[nH]c3c(c2c1)CCN(c1ncccn1)C3c1ccc(OCCN2CCOCC2)cc1 (stereo not drawn) [Compound 356] | 0.2 to 1 µM
30 | CCCOC(=O)N1CCc2c([nH]c3ccc(Cl)cc23)C1c1cccc(C(F)(F)F)c1 (stereo not drawn) [Compound 79] | 0.008 to 0.04 µM
31 | CC(C)NC(=O)N1CCc2c([nH]c3ccc(Br)cc23)C1c1cccc(Cl)c1 (stereo not drawn) [Compound 199] | 0.2 to 1 µM
32 | CCCOC(=O)N1CCc2c([nH]c3ccc(Cl)cc23)C1c1ccc(C#N)cc1 (stereo not drawn) [Compound 71] | 0.008 to 0.04 µM
33 | COc1ccc(OC(=O)N2CCc3c([nH]c4ccc(Br)cc34)[C@@H]2c2ccc(Cl)cc2)cc1 [#332] | > 1 µM
34 | CCOC(=O)N1CCc2c([nH]c3ccc(F)cc23)C1c1ccc(Br)cc1 (stereo not drawn) [Compound 196] | 0.2 to 1 µM
35 | COC(=O)N1CCc2c([nH]c3ccc(Cl)cc23)C1c1ccc(Br)cc1 (stereo not drawn) [Compound 46] | 0.008 to 0.04 µM
36 | COC(=O)N1CCc2c([nH]c3ccc(OCc4ccccc4)cc23)C1c1ccccc1 (stereo not drawn) [Compound 293] | > 1 µM
37 | COc1ccc(C2NCCc3c2[nH]c2ccc(OCc4ccccc4)cc32)cc1 (stereo not drawn) [Compound 292] | > 1 µM
38 | CCCOC(=O)N1CCc2c([nH]c3ccc(Cl)cc23)C1c1ccc(C)cc1 (stereo not drawn) [Compound 42] | < 0.008 µM
39 | Brc1ccc2[nH]c3c(c2c1)CCNC3Cc1ccccc1 (stereo not drawn) [Compound 252] | > 1 µM
40 | Fc1ccccc1C1NCCc2c1[nH]c1ccc(Cl)cc21 (stereo not drawn) [Compound 205] | 0.2 to 1 µM
41 | COc1ccc(C2c3[nH]c4ccc(Cl)cc4c3CCN2C(=O)Nc2ccccc2OC)cc1 (stereo not drawn) [Compound 142] | 0.04 to 0.2 µM
42 | CC(C)(C)c1cc(C2c3[nH]c4ccc(Cl)cc4c3CCN2Cc2ccccc2)cc(C(C)(C)C)c1O (stereo not drawn) [Compound 263] | > 1 µM
43 | Fc1ccc(C2NCCc3c2[nH]c2ccc(Br)cc32)cc1F (stereo not drawn) [Compound 201] | 0.2 to 1 µM
44 | Oc1ccc(Cl)cc1C1NCCc2c1[nH]c1ccc(Br)cc21 (stereo not drawn) [Compound 381] | > 1 µM
45 | CCSC(=S)N1CCc2c([nH]c3ccc(Cl)cc23)C1c1ccc(OC)cc1 (stereo not drawn) [Compound 383] | < 0.008 µM
46 | COc1ccc(C2c3[nH]c4ccc(Cl)cc4c3CCN2C(=O)CCCl)cc1 (stereo not drawn) [Compound 367] | 0.008 to 0.04 µM
47 | CCCOC(=O)N1CCc2c([nH]c3ccc(Cl)cc23)C1c1cccc(Cl)c1 (stereo not drawn) [Compound 72] | 0.008 to 0.04 µM

Same assay, conditions: Homo sapiens, HeLa cells, hypoxic conditions (1% O2)

Row | SMILES | EC50
48 | CCOC(=O)N1CCc2c([nH]c3ccc(Cl)cc23)C1c1ccc(C(=O)N2COCC2(C)C)cc1 (stereo not drawn) [Compound 441] | 0.008 to 0.04 µM
49 | CSC(C)CC1NCCc2c1[nH]c1ccc(Cl)cc21 (stereo not drawn) [Compound 568] | > 1 µM
50 | CCCC1c2[nH]c3ccc(Cl)cc3c2CCN1C(=O)OCC (stereo not drawn) [Compound 510] | 0.04 to 0.2 µM
51 | CCOC(=O)N1CCc2c([nH]c3ccc(Cl)cc23)C1c1ccc(OCCCN(C)C)cc1 (stereo not drawn) [Compound 458] | 0.008 to 0.04 µM
52 | O=C(Oc1ccc(F)cc1)N1CCc2c([nH]c3ccc(Cl)cc23)C1c1ccc(OCCCCn2ccnc2)cc1 (stereo not drawn) [Compound 742] | < 0.008 µM
53 | C=CCOc1ccc(C2c3[nH]c4ccc(Cl)cc4c3CCN2C(=O)OCCF)cc1 (stereo not drawn) [Compound 399] | < 0.008 µM
54 | CCCCCCC1c2[nH]c3ccc(Cl)cc3c2CCN1C(=O)OCC (stereo not drawn) [Compound 515] | 0.2 to 1 µM
55 | CC(C)NCCCCCCOc1ccc(C2c3[nH]c4ccc(Cl)cc4c3CCN2C(=O)Oc2ccc(F)cc2)cc1 (stereo not drawn) [Compound 774] | 0.008 to 0.04 µM
56 | COc1ccc(OC(=O)N2CCc3c([nH]c4ccc(Cl)cc34)C2c2ccc(S(=O)(=O)N3CCOCC3)cc2)cc1 (stereo not drawn) [Compound 455] | 0.008 to 0.04 µM
57 | C=CCOc1ccc(C2c3[nH]c4ccc(Cl)cc4c3CCN2C(=O)Oc2ccc(Cl)cc2)cc1 (stereo not drawn) [Compound 400] | < 0.008 µM
58 | CCOC(=O)N1CCc2c([nH]c3ccc(Cl)cc23)C1c1ccc(C(=O)N(C)CCN(C)C)cc1 (stereo not drawn) [Compound 563] | > 1 µM
59 | COCCOc1ccc(C2c3[nH]c4ccc(Cl)cc4c3CCN2C(=O)Oc2ccc(Cl)cc2)cc1 (stereo not drawn) [Compound 418] | < 0.008 µM
60 | COCCOc1ccc(C2c3[nH]c4ccc(Cl)cc4c3CCN2C(=O)Oc2ccc(OC)cc2)cc1 (stereo not drawn) [Compound 465] | 0.008 to 0.04 µM
61 | CCOC(=O)Nc1ccc(C2c3[nH]c4ccc(Cl)cc4c3CCN2C(=O)Oc2ccc(Cl)cc2)cc1 (stereo not drawn) [Compound 467] | 0.008 to 0.04 µM
62 | O=C(Oc1ccccc1Cl)N1CCc2c([nH]c3ccc(Cl)cc23)C1c1ccc(OCC(O)CO)cc1 (stereo not drawn) [Compound 628] | 0.04 to 0.2 µM
63 | COCCOc1ccc(C2c3[nH]c4ccc(Cl)cc4c3CCN2C(=O)Oc2ccccc2)cc1 (stereo not drawn) [Compound 436] | < 0.008 µM
64 | O=C(Oc1ccc(F)cc1)N1CCc2c([nH]c3ccc(Cl)cc23)C1c1ccc(OCCCCN2CCCCC2)cc1 (stereo not drawn) [Compound 739] | < 0.008 µM
65 | CCOC(=O)N1CCc2c([nH]c3ccc(Cl)cc23)C1c1ccc(C(=O)N2CCN(C)CC2)cc1 (stereo not drawn) [Compound 498] | 0.04 to 0.2 µM
66 | COCCOCCOc1ccc(C2c3[nH]c4ccc(Cl)cc4c3CCN2C(=O)Oc2ccc(C)cc2)cc1 (stereo not drawn) [Compound 677] | 0.008 to 0.04 µM
67 | CCOC(=O)N1CCc2c([nH]c3ccc(Br)cc23)C1c1cnc(NC)nc1 (stereo not drawn) [Compound 496] | 0.04 to 0.2 µM
68 | COc1ccc(C2c3[nH]c4ccc(Cl)cc4c3CCN2C(=O)c2ccc(-c3ccccc3)cc2)cc1 (stereo not drawn) [Compound 464] | 0.008 to 0.04 µM
69 | CCOC(=O)N1CCc2c([nH]c3ccc(Cl)cc23)C1c1cnc(N(C)C)nc1 (stereo not drawn) [Compound 476] | 0.04 to 0.2 µM
70 | O=C(Oc1ccc(Cl)cc1)N1CCc2c([nH]c3ccc(Cl)cc23)C1c1ccc(OCCCCCl)cc1 (stereo not drawn) [Compound 660] | < 0.008 µM
71 | O=C(Oc1ccccc1Cl)N1CCc2c([nH]c3ccc(Cl)cc23)C1c1ccc(F)cc1 (stereo not drawn) [Compound 588] | 0.04 to 0.2 µM

Same assay, conditions: Homo sapiens, HeLa cells, hypoxic conditions (1% O2, 5% CO2)

Row | SMILES | EC50
72 | O=C(Oc1ccc(Cl)cc1)N1CCc2c([nH]c3ccc(Cl)cc23)C1c1ccc(OCCNc2cccnc2)cc1 (stereo not drawn) [#843] | < 0.008 µM
73 | O=C(Oc1ccc(F)cc1)N1CCc2c([nH]c3ccc(Cl)cc23)C1c1ccc(OCCCn2ccnc2)cc1 (stereo not drawn) [Compound 889] | < 0.008 µM
74 | O=C(Oc1ccc(Cl)cc1)N1CCc2c([nH]c3ccc(Cl)cc23)C1c1ccc(OCC(O)Cn2ccnc2)cc1 (stereo not drawn) [Compound 867] | 0.008 to 0.04 µM
75 | CC(C)NCCCOc1ccc(C2c3[nH]c4ccc(Cl)cc4c3CCN2C(=O)Oc2ccc(Cl)cc2)cc1 (stereo not drawn) [Compound 953] | 0.008 to 0.04 µM
76 | O=C(Oc1ccc(F)cc1)N1CCc2c([nH]c3ccc(Cl)cc23)C1c1ccc(OCC(O)CN2CCSCC2)cc1 (stereo not drawn) [Compound 925] | < 0.008 µM
77 | O=C(Oc1ccc(F)cc1)N1CCc2c([nH]c3ccc(Cl)cc23)C1c1ccc(OCCn2ccnn2)cc1 (stereo not drawn) [Compound 833] | 0.04 to 0.2 µM
78 | O=C(Oc1ccccc1Cl)N1CCc2c([nH]c3ccc(Cl)cc23)C1c1ccc(OCCCn2ccnc2)cc1 (stereo not drawn) [Compound 934] | < 0.008 µM
